# Results as given in publication PMC6158578, “Optimization and Lead Selection of Benzothiazole Amide Analogs Toward a Novel Antimycobacterial Agent” (Frontiers in Microbiology, 2018).
# Like-named read-outs stand apart in the source and are kept apart here.
# Columns and labels:
# C. albicans ATCC 10231 = experiment: MIC, spectrum of activity; assay type: cell-based; conditions: Candida albicans, ATCC10231
# HepG2 cytotoxicity, 72 h = assay type: cell-based; conditions: human, HepG2 cells, HepG2, 72 h, read-out: HepG2 cytotox., IC50
# Procedure: (§1) ADMET assays were performed through NIAID Preclinical Services and Eurofins. Potential for cytotoxicity was monitored in HepG2 cells after 72 h growth in the presence of test compounds, either prepared as 10-point 3-fold serial dilutions or at a fixed 10 μM concentration. Cell viability was measured using the CellTiter-Glo® Luminescent Cell Viability Assay (Promega) or via fluorescent image analysis. Cytotoxicity was expressed as IC50 or as percent reduction of viable cells relative to a reference compound. Metabolic stability of compounds was evaluated via incubation with human liver microsomes at 37°C and quantitative analysis of parent compound by LC-MS/MS in samples removed at 0, 5, 15, 30, and 45 min (Obach, [1999]). For cytochrome P450 (CYP) inhibition assays, compounds were prepared as a 7-point dilution series and incubated with human liver microsomes in buffer containing 2 mM NADPH and probe substrate. […] Thermodynamic solubility of compounds in aqueous media was determined by incubation in 50 mM potassium phosphate buffer (pH 7.4) for 24 h, followed by HPLC-UV detection of compound in the filtrate (Analiza, Cleveland, OH, United States).
# Mabs 21 = experiment: Time-kill assay; assay type: cell-based, M. abscessus; conditions: 10x MIC
# E. faecalis ATCC 29212 = experiment: MIC, spectrum of activity; assay type: cell-based; conditions: Enterococcus faecalis, ATCC29212
# M. abscessus 1 = experiment: MIC in MHB versus 7H9+OADC; assay type: cell-based
# [1] = test system: M. peregrinum ATCC 700686; experiment: MIC, broth microdilution with resazurin (MHB, 3 days); assay type: cell-based; conditions: Mycolicibacterium peregrinum, ATCC700686
# [2] = test system: E. coli tolC CGSC 5633 (efflux mutant strain); experiment: microbe, parasite or virus in culture; assay type: cell-based; conditions: Escherichia coli
# [3] = test system: M. tuberculosis H37Rv mc^2 6206; experiment: microbe, parasite or virus in culture; assay type: cell-based; conditions: Mycobacterium tuberculosis
# S. pyogenes ATCC 19615 = experiment: MIC, spectrum of activity; assay type: cell-based; conditions: Streptococcus pyogenes, ATCC19615
# Other NTM (n = 12) = experiment: MIC against rapid-growing NTM clinical isolates; assay type: cell-based; conditions: for MIC range: Other NTM (n = 12)
# M. abscessus ATCC 19977 = experiment: MIC, broth microdilution with resazurin (MHB, 3 days); assay type: cell-based; conditions: Mycobacteroides abscessus, ATCC19977
# S. aureus ATCC 29213 = experiment: MIC, spectrum of activity; assay type: cell-based; conditions: Staphylococcus aureus, ATCC29213
# S. pneumoniae ATCC 49619 = experiment: MIC, spectrum of activity; assay type: cell-based; conditions: Streptococcus pneumoniae, ATCC49619
# M. chimaera 1502055 = experiment: MIC, Middlebrook medium (7H9 + OADC, 7 days); assay type: cell-based; conditions: 1502055, 168 h
# [4] = test system: Anaerobes (n > 20 strains); experiment: organism not typed; assay type: cell-based
# [5] = test system: M. abscessus massiliense 119; experiment: MIC, broth microdilution with resazurin (MHB, 3 days); assay type: cell-based; conditions: Mycobacteroides abscessus
# [6] = test system: M. abscessus (n = 20) clinical isolates; experiment: MIC against rapid-growing NTM clinical isolates; assay type: cell-based; conditions: for MIC range: M. abscessus (n = 20); for MIC90: Mycobacteroides abscessus
# rapid-growing NTM = experiment: MIC against rapid-growing NTM; assay type: cell-based; conditions: read-out: MIC values against rapid-growing NTM
# M. chelonae 93 = experiment: MIC, broth microdilution with resazurin (MHB, 3 days); assay type: cell-based; conditions: Mycobacteroides chelonae, 93
# CYP2B6 = molecular target: T1, CYP2B6 (Homo sapiens, UniProt P20813); experiment: CYP inhibition in human liver microsomes; assay type: in vitro ADME
# T1 construct: incubated with human liver microsomes in buffer containing 2 mM NADPH and probe substrate; from tissue; host or cells: human liver microsomes
# T1 sequence (P20813 1-491): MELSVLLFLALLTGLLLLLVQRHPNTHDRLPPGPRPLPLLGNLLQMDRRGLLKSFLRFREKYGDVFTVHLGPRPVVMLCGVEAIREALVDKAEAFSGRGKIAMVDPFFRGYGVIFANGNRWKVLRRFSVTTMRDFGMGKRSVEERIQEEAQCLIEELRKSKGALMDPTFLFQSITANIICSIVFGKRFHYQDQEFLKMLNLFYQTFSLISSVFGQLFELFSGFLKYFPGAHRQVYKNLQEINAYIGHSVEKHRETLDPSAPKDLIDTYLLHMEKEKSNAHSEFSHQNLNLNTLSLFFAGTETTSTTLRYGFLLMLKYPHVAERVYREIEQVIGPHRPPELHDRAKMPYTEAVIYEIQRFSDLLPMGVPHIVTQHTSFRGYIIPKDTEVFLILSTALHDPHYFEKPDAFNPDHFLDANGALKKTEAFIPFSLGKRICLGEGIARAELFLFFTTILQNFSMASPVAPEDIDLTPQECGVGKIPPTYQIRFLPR
# Procedure: as §1
# CYP3A = experiment: CYP inhibition in human liver microsomes; assay type: in vitro ADME
# Procedure: as §1
# M. intracellulare 1956 = experiment: MIC, Middlebrook medium (7H9 + OADC, 7 days); assay type: cell-based; conditions: Mycobacterium intracellulare, 1956, 168 h
# [7] = assay type: cell-based
# M. avium 101 = experiment: MIC, Middlebrook medium (7H9 + OADC, 7 days); assay type: cell-based; conditions: Mycobacterium avium, 101, 168 h
# M. avium complex (MAC) = experiment: MIC against MAC; assay type: cell-based; conditions: Mycobacterium avium, read-out: MIC against MAC
# P. aeruginosa ATCC 35151 = experiment: MIC, spectrum of activity; assay type: cell-based; conditions: Pseudomonas aeruginosa, ATCC35151
# [8] = test system: E. coli ATCC 25922 + PMBN (permeabilized); experiment: MIC, spectrum of activity; assay type: cell-based; conditions: Escherichia coli, ATCC25922
# [9] = 50% complement-inactivated human serum
# M. abscessus 21 = experiment: MIC in MHB versus 7H9+OADC; assay type: cell-based
# M. fortuitum 41 = experiment: MIC, broth microdilution with resazurin (MHB, 3 days); assay type: cell-based; conditions: Mycolicibacterium fortuitum, 41
# M. abscessus 79 = experiment: MIC in MHB versus 7H9+OADC; assay type: cell-based
# [10] = test system: M. chelonae (n = 11) clinical isolates; experiment: MIC against rapid-growing NTM clinical isolates; assay type: cell-based; conditions: for MIC range: M. chelonae (n = 11); for MIC90: Mycobacteroides chelonae
# physchem = assay type: physicochemical; conditions: pH 7.4, aqueous buffer, thermodynamic from solid
# Procedure: as §1
# [11] = test system: M. fortuitum (n = 11) clinical isolates; experiment: MIC against rapid-growing NTM clinical isolates; assay type: cell-based; conditions: for MIC range: M. fortuitum (n = 11); for MIC90: Mycolicibacterium fortuitum
# M. abscessus = test system: M. abscessus; design: method as in Graham et al., 2018; conditions: SAR of CRS400153 analogs; ref Graham et al., 2018; cited from earlier work
# [12] = test system: mycolic acid transfer in Mabs ATCC19977; experiment: Metabolic labeling with [14C]acetate; assay type: cell-based, M. abscessus; conditions: 2x and 10x MIC
# [13] = test system: Mtb intact cells and inverted membrane vesicles; assay type: cell-based, M. tuberculosis
# [14] = M. abscessus 1, 7H9 + OADC (5 mg/mL albumin)
# [15] = M. abscessus 21, 7H9 + OADC (5 mg/mL albumin)
# [16] = M. abscessus 79, 7H9 + OADC (5 mg/mL albumin)
compound,measurement,setting,value
CC12CCCC(C(=O)Nc3nc4cc(Cl)cc(Cl)c4s3)(CCC1)C2 [CRS400393],MIC,C. albicans ATCC 10231,> 64 µg/mL
same,IC50 at 72 h,"HepG2 cytotoxicity, 72 h",> 10 µM
same,IC50 at 72 h,"HepG2 cytotoxicity, 72 h; value in brackets",> 4 µg/mL
same,"time-kill kinetics, result in words",Mabs 21,bactericidal activity
same,drop in Mabs in time-kill assay,Mabs 21; after 5 days,2 Log10 CFU
same,effect against Mabs in time-kill assay,Mabs 21; for 3 days,bacteriostatic
same,MIC,E. faecalis ATCC 29212,> 64 µg/mL
same,MIC,M. abscessus 1; [14],1 µg/mL
same,MIC,"M. abscessus 1; M. abscessus 1, MHB",0.06 µg/mL
same,MIC,[1],0.03 µg/mL
same,MIC,[2],64 µg/mL
same,MIC,[3]; 168 h,≤ 0.12 µg/mL
same,MIC,[3]; read-out: MIC against Mtb,≤ 0.12 µg/mL
same,MIC,S. pyogenes ATCC 19615,> 64 µg/mL
same,MIC90,Other NTM (n = 12),0.5 µg/mL
same,MIC range,Other NTM (n = 12),0.12 to 0.5 µg/mL
same,MIC,M. abscessus ATCC 19977,0.03 µg/mL
same,MIC,S. aureus ATCC 29213,> 64 µg/mL
same,MIC,S. pneumoniae ATCC 49619,32 µg/mL
same,MIC,M. chimaera 1502055,1 µg/mL
same,MIC,[4],> 32 µg/mL
same,MIC,[5],0.03 µg/mL
same,MIC range,[6],≤ 0.03 to 0.25 µg/mL
same,MIC90,[6],0.25 µg/mL
same,MIC,rapid-growing NTM,0.03 to 0.5 µg/mL
same,MIC,M. chelonae 93,0.03 µg/mL
same,inhibition at 10 µM,CYP2B6,39%
same,inhibition at 10 µM,CYP3A,26%
same,MIC,M. intracellulare 1956,2 µg/mL
same,interaction when combined with other antimycobacterial agents,[7],additivity and no antagonism
same,MIC,M. avium 101,2 µg/mL
same,MIC,M. avium complex (MAC),1 to 2 µg/mL
same,MIC,P. aeruginosa ATCC 35151,64 µg/mL
same,MIC,[8],> 64 µg/mL
same,Protein (serum) binding,[9],>95%
same,MIC,M. abscessus 21; [15],1 µg/mL
same,MIC,"M. abscessus 21; M. abscessus 21, MHB",0.03 µg/mL
same,MIC,M. fortuitum 41,0.06 µg/mL
same,MIC,M. abscessus 79; [16],0.5 µg/mL
same,MIC,"M. abscessus 79; M. abscessus 79, MHB",0.03 µg/mL
same,MIC range,[10],0.12–0.12 μg/mL
same,MIC90,[10],0.12 µg/mL
same,solubility at 24 h,physchem,< 3 µM
same,MIC range,[11],≤ 0.03 to 0.5 µg/mL
same,MIC90,[11],0.25 µg/mL
CC12CCCC(C(=O)Nc3nc4ccc(OC(F)(F)F)cc4s3)(CCC1)C2 [CRS400359],MIC,C. albicans ATCC 10231,64 µg/mL
same,IC50 at 72 h,"HepG2 cytotoxicity, 72 h",10 µM
same,IC50 at 72 h,"HepG2 cytotoxicity, 72 h; value in brackets",4 µg/mL
same,MIC,E. faecalis ATCC 29212,> 64 µg/mL
same,MIC,M. abscessus 1; [14],1 µg/mL
same,MIC,"M. abscessus 1; M. abscessus 1, MHB",0.06 µg/mL
same,MIC,[1],0.12 µg/mL
same,MIC,[2],> 64 µg/mL
same,MIC,[3]; 168 h,0.5 µg/mL
same,MIC,S. pyogenes ATCC 19615,> 64 µg/mL
same,MIC90,Other NTM (n = 12),0.5 µg/mL
same,MIC range,Other NTM (n = 12),0.12 to 2 µg/mL
same,MIC,M. abscessus ATCC 19977,≤ 0.06 µg/mL
same,MIC,S. aureus ATCC 29213,> 64 µg/mL
same,MIC,S. pneumoniae ATCC 49619,32 µg/mL
same,MIC,M. chimaera 1502055,2 µg/mL
same,MIC,[5],≤ 0.06 µg/mL
same,MIC range,[6],0.06 to 2 µg/mL
same,MIC90,[6],0.25 µg/mL
same,MIC,M. chelonae 93,0.12 µg/mL
same,inhibition at 10 µM,CYP2B6,30%
same,inhibition at 10 µM,CYP3A,0%
same,MIC,M. intracellulare 1956,2 µg/mL
same,MIC,M. avium 101,2 µg/mL
same,MIC,P. aeruginosa ATCC 35151,64 µg/mL
same,MIC,[8],> 64 µg/mL
same,Protein (serum) binding,[9],>95%
same,MIC,M. abscessus 21; [15],2 µg/mL
same,MIC,"M. abscessus 21; M. abscessus 21, MHB",0.06 µg/mL
same,MIC,M. fortuitum 41,0.12 µg/mL
same,MIC,M. abscessus 79; [16],0.25 µg/mL
same,MIC,"M. abscessus 79; M. abscessus 79, MHB",0.06 µg/mL
same,MIC range,[10],0.25 to 0.5 µg/mL
same,MIC90,[10],0.25 µg/mL
same,solubility at 24 h,physchem,< 3 µM
same,MIC range,[11],0.06 to 1 µg/mL
same,MIC90,[11],1 µg/mL
CC1CC(C(=O)Nc2nc3c(F)cc(F)cc3s2)CC(C)(C)C1 (centres unmarked) [CRS400153],MIC,E. faecalis ATCC 29212,> 64 µg/mL
same,MIC,[1],0.12 µg/mL
same,MIC,[2],> 64 µg/mL
same,MIC,[3]; 168 h,1 µg/mL
same,MIC,S. pyogenes ATCC 19615,> 64 µg/mL
same,MIC90,Other NTM (n = 12),1 µg/mL
same,MIC range,Other NTM (n = 12),0.25 to 1 µg/mL
same,MIC,M. abscessus ATCC 19977,0.5 µg/mL
same,MIC,S. aureus ATCC 29213,> 64 µg/mL
same,MIC against M. abscessus,M. abscessus,0.5 µg/mL
same,MIC,S. pneumoniae ATCC 49619,8 µg/mL
same,effect on mycolic acid transfer to arabinogalactan and trehalose dimycolates,[12],concentration-dependent inhibition of mycolic acid transfer
same,MIC,[5],0.5 µg/mL
same,MIC range,[6],0.5 to 2 µg/mL
same,MIC90,[6],1 µg/mL
same,MIC,M. chelonae 93,0.25 µg/mL
same,MIC,M. intracellulare 1956,8 µg/mL
same,MIC,M. avium 101,16 µg/mL
same,MIC,P. aeruginosa ATCC 35151,> 64 µg/mL
same,MIC,[8],> 64 µg/mL
same,Protein (serum) binding,[9],>95%
same,MIC,M. fortuitum 41,0.25 µg/mL
same,MIC range,[10],0.5 to 1 µg/mL
same,MIC90,[10],1 µg/mL
same,solubility at 24 h,physchem,3 µM
same,effect on membrane potential and electrochemical pH gradient,[13],no effect
same,MIC range,[11],0.5–0.5 μg/mL
same,MIC90,[11],0.5 µg/mL
